Literature values as cited in PubChem BioAssay AID1259409 (Chemical Carcinogenesis Research Information System (CCRIS), 2018).

System: rodent chemically induced tumor inhibition, incidence and multiplicity
Assay: CCRIS tumor inhibitor studies
Conditions: Route [Inhibitor]: ORAL

## Cc1c(C)c2c(c(C)c1O)CC[C@@](C)(CCC[C@H](C)CCC[C@H](C)CCCC(C)C)O2
Carcinogen: 1,2-DIMETHYLHYDRAZINE, 540-73-8, Dose [Inhibitor]: 600 MG/KG OF DIET DAILY STARTING AT AGE 10 WK AND CONTINUING FOR DURATION OF STUDY (STUDY DURATION: 28 WK), Species: MOUSE, Strain/Sex: LACA/MALE, Target Tissue: Type of Lesion: COLON: ADENOMA, CARCINOMA, Dose [Carcinogen]: 10 MG/KG BW 1/WK FOR 28 WK, Promoter: NONE USED
  tumour outcome (control, treated, inhibition, significance): 34/42 (81%), 31/51 (61%), 25%, p<0.25
Carcinogen: 2-AMINO-1-METHYL-6-PHENYL-1H-IMIDAZO[4,5-B]PYRID INE, 105650-23-5, Dose [Inhibitor]: 0, 1% IN THE DIET FOR 52 WK (STUDY DURATION: 52 WK), Species: RAT, Strain/Sex: F344/FEMALE, Target Tissue: Type of Lesion: MAMMARY GLAND: ADENOCARCINOMA FIBROADENOMA, Dose [Carcinogen]: 0.02% IN THE DIET FOR 52 WK, Promoter: NONE USED
  tumour outcome (control, treated, inhibition, significance): 2/20 (10%), 1/20 (5%), 50%, not significant
Carcinogen: 2-AMINO-1-METHYL-6-PHENYL-1H-IMIDAZO[4,5-B]PYRID INE, 105650-23-5, Dose [Inhibitor]: 0, 1% IN THE DIET FOR 52 WK (STUDY DURATION: 52 WK), Species: RAT, Strain/Sex: F344/FEMALE, Target Tissue: Type of Lesion: MAMMARY GLAND: ADENOCARCINOMA, Dose [Carcinogen]: 0.02% IN THE DIET FOR 52 WK, Promoter: NONE USED
  tumour outcome (control, treated, inhibition, significance): 8/20 (40%), 4/20 (20%), 50%, not significant
Carcinogen: 2-AMINO-1-METHYL-6-PHENYLIMIDAZO[4,5-B]PYRIDINE [105650-23-5], Dose [Inhibitor]: 0.5% IN DIET FOR 54 WK (STUDY DURATION: 54 WK), Species: RAT, Strain/Sex: F344/DUCRJ/FEMALE, Target Tissue: Type of Lesion: COLON: ADENOMA OR ADENOCARCINOMA, Dose [Carcinogen]: 0.02% IN DIET FOR 54 WK (STUDY DURATION: 54 WK), Promoter: NONE
  tumour outcome (control, treated, inhibition, significance): 3/20 (15%), 1/20 (5%), 67%, not significant
Carcinogen: 2-AMINO-1-METHYL-6-PHENYLIMIDAZO[4,5-B]PYRIDINE [105650-23-5], Dose [Inhibitor]: 0.5% IN DIET FOR 54 WK (STUDY DURATION: 54 WK), Species: RAT, Strain/Sex: F344/DUCRJ/FEMALE, Target Tissue: Type of Lesion: MAMMARY GLAND: ADENOMA OR ADENOCARCINOMA, Dose [Carcinogen]: 0.02% IN DIET FOR 54 WK (STUDY DURATION: 54 WK), Promoter: NONE
  tumour outcome (control, treated, inhibition, significance): 8/20 (40%), 4/20 (20%), 50%, not significant
Carcinogen: 3,2'-DIMETHYL-4-AMINOBIPHENYL, 13394-86-0, Dose [Inhibitor]: 0, 1% IN BASAL DIET BEGINNING POST CARCINOGEN TREATMENT AND CONTINUING FOR 40 WK (STUDY DURATION: 60 WK), Species: RAT, Strain/Sex: F344/MALE, Target Tissue: Type of Lesion: LARGE INTESTINE: ADENOMA AND ADENOCARCINOMA, Dose [Carcinogen]: 50 MG/KG 1/2 WK FOR 20 WK TO RATS MAINTAINED ON ETHINYL ESTRADIOL CONTAINING DIET (0.75 PPM) FOR 1 WK CYCLED WITH ETHINY, Promoter: ETHINYL ESTRADIOL, 57-63-6
  tumour outcome (control, treated, inhibition, significance): 3/10 (30%), 4/12 (33%), -10%, not significant
Carcinogen: 3,2'-DIMETHYL-4-AMINOBIPHENYL, 13394-86-0, Dose [Inhibitor]: 0, 1% IN BASAL DIET BEGINNING POST CARCINOGEN TREATMENT AND CONTINUING FOR 40 WK (STUDY DURATION: 60 WK), Species: RAT, Strain/Sex: F344/MALE, Target Tissue: Type of Lesion: PREPUTIAL GLAND: ADENOMA AND CARCINOMA, Dose [Carcinogen]: 50 MG/KG 1/2 WK FOR 20 WK TO RATS MAINTAINED ON ETHINYL ESTRADIOL CONTAINING DIET (0.75 PPM) FOR 1 WK CYCLED WITH ETHINY, Promoter: ETHINYL ESTRADIOL, 57-63-6
  tumour outcome (control, treated, inhibition, significance): 5/10 (50%), 6/12 (50%), 0%, not significant
Carcinogen: 3,2'-DIMETHYL-4-AMINOBIPHENYL, 13394-86-0, Dose [Inhibitor]: 0, 1% IN BASAL DIET BEGINNING POST CARCINOGEN TREATMENT AND CONTINUING FOR 40 WK (STUDY DURATION: 60 WK), Species: RAT, Strain/Sex: F344/MALE, Target Tissue: Type of Lesion: SMALL INTESTINE: ADENOMA AND ADENOCARCINOMA, Dose [Carcinogen]: 50 MG/KG 1/2 WK FOR 20 WK TO RATS MAINTAINED ON ETHINYL ESTRADIOL CONTAINING DIET (0.75 PPM) FOR 1 WK CYCLED WITH ETHINY, Promoter: ETHINYL ESTRADIOL, 57-63-6
  tumour outcome (control, treated, inhibition, significance): 2/10 (20%), 1/12 (8%), 60%, not significant
Carcinogen: 3,2'-DIMETHYL-4-AMINOBIPHENYL, 13394-86-0, Dose [Inhibitor]: 0, 1% IN BASAL DIET BEGINNING POST CARCINOGEN TREATMENT AND CONTINUING FOR 40 WK (STUDY DURATION: 60 WK), Species: RAT, Strain/Sex: F344/MALE, Target Tissue: Type of Lesion: SUBCUTIS: TUMOR, Dose [Carcinogen]: 50 MG/KG 1/2 WK FOR 20 WK TO RATS MAINTAINED ON ETHINYL ESTRADIOL CONTAINING DIET (0.75 PPM) FOR 1 WK CYCLED WITH ETHINY, Promoter: ETHINYL ESTRADIOL, 57-63-6
  tumour outcome (control, treated, inhibition, significance): 1/10 (10%), 0/12 (0%), 100%, not significant
Carcinogen: 3,2'-DIMETHYL-4-AMINOBIPHENYL, 13394-86-0, Dose [Inhibitor]: 0, 1% IN BASAL DIET BEGINNING POST CARCINOGEN TREATMENT AND CONTINUING FOR 40 WK (STUDY DURATION: 60 WK), Species: RAT, Strain/Sex: F344/MALE, Target Tissue: Type of Lesion: ZYMBAL GLAND: ADENOMA AND CARCINOMA, Dose [Carcinogen]: 50 MG/KG 1/2 WK FOR 20 WK TO RATS MAINTAINED ON ETHINYL ESTRADIOL CONTAINING DIET (0.75 PPM) FOR 1 WK CYCLED WITH ETHINY, Promoter: ETHINYL ESTRADIOL, 57-63-6
  tumour outcome (control, treated, inhibition, significance): 2/10 (20%), 1/12 (8%), 60%, not significant
